Key:
[1] = system: caterpillars of the army worm (Spodoptera exigua); assay: Spodoptera exigua test (Example D); assay type: in vivo; conditions: 500 ppm, after 6 days, cabbage leaves dipped
Protocol: (§1) Spodoptera exigua Test [table] To produce a suitable preparation of active compound, 1 part by weight of active compound is mixed with the stated amounts of solvent and emulsifier, and the concentrate is diluted with emulsifier-containing water to the desired concentration. Cabbage leaves (Brassica oleracea) are treated by being dipped into the preparation of active compound at the desired concentration and are populated with caterpillars of the army worm (Spodoptera exigua) while the leaves are still moist. After the desired period of time, the kill in % is determined. 100% means that all of the caterpillars have been killed: 0% denotes that no caterpillars have been killed.

[2] = system: caterpillars of the cabbage moth (Plutella xylostella); assay: Plutella test (Example C); assay type: in vivo; conditions: 500 ppm, after 6 days, cabbage leaves dipped
Protocol: as §1, with “Plutella test” for “Spodoptera exigua Test”, “cabbage moth (Plutella xylostella)” for “army worm (Spodoptera exigua)”

[3] = system: Heliothis virescens caterpillars; assay: Heliothis virescens test (Example A); assay type: in vivo; conditions: 500 ppm, after 6 days, soya shoots dipped
Protocol: Heliothis virescens Test [table] To produce a suitable preparation of active compound, 1 part by weight of active compound is mixed with the stated amounts of solvent and emulsifier, and the concentrate is diluted with emulsifier-containing water to the desired concentration. Soya shoots (Glycine max) are treated by being dipped into the preparation of active compound at the desired concentration and are populated with Heliothis virescens caterpillars while the leaves are still moist. After the desired period of time, the kill in % is determined. 100% means that all of the caterpillars have been killed: 0% denotes that no caterpillars have been killed.

[4] = logP (pH 2)
[5] = not given; remark: listed apart in the source
[6] = system: caterpillars of the army worm (Spodoptera frugiperda); assay: Activity duration test: Spodoptera frugiperda (Example G); assay type: in vivo; conditions: 20 ppm, cotton plants sprayed
Protocol: (§2) Activity Duration Test: Spodoptera frugiperda [table] To produce a suitable preparation of active compound, 1 part by weight of active compound is mixed with the stated amounts of solvent and emulsifier, and the concentrate is diluted with emulsifier-containing water to the desired concentration. Cotton plants (Gossypium hirsutum) are sprayed with a preparation of the active compound in the desired concentration. After the number of days indicated, caterpillars of the army worm (Spodoptera frugiperda) are placed onto the treated leaves in infection chambers. After the desired period of time, the kill in % is determined. 100% means that all of the caterpillars have been killed: 0% denotes that no caterpillars have been killed.

[7] = system: Heliothis virescens caterpillars; assay: Activity duration test: Heliothis virescens (Example F); assay type: in vivo; conditions: 20 ppm, cotton plants sprayed
Protocol: as §2, with “Heliothis virescens” for “Spodoptera frugiperda”, “indicated, Heliothis virescens” for “indicated,”, “caterpillars” for “caterpillars of the army worm (Spodoptera frugiperda)”

Row | SMILES | kill [1] [%] | kill [2] [%] | kill [3] [%] | logP [4] | melting point [°C] | logP (pH 2)/ m.p. [° C.] (logP part) [5] | Degree of kill in % ([6]; infection after 5 days) [%] | Degree of kill in % ([6]; infection after 12 days) [%] | Degree of kill in % ([6]; infection after 19 days) [%] | Degree of kill in % ([6]; infection after 26 days) [%] | kill ([7]; infection after 5 days) [%] | kill ([7]; infection after 12 days) [%] | kill ([7]; infection after 19 days) [%] | kill ([7]; infection after 26 days) [%]
1 | N#Cc1cccc(C2=NN(C(=O)Nc3ccc(OC(F)(F)F)cc3)CCC2n2cc(Cl)cn2)c1 (centres unmarked) [Example 1, 3-(3-cyanophenyl)-4-(4-chloropyrazol-1-yl)-1-(4-trifluoromethoxyphenylamino)carbonyl-1,4,5,6-tetrahydropyridazine] | 100 | 100 | 100 | 4.08 | 216 | – | – | – | – | – | – | – | – | –
2 | O=C(Nc1ccc(C(F)(F)F)cc1)N1CCC(n2cc(Cl)cn2)C(c2cccc(Br)c2)=N1 (centres unmarked) [Example 13] | 100 | 100 | 100 | – | – | 4.77/196 | – | – | – | – | – | – | – | –
3 | O=C(Nc1ccc(C(F)(F)F)cc1)N1CCC(n2cc(Cl)cn2)C(c2cccc(C(F)(F)F)c2)=N1 (centres unmarked) [Example 14] | 100 | 100 | 100 | – | – | 4.79/176 | 90 | 80 | 70 | 90 | 100 | 100 | 100 | 100
4 | O=C(Nc1ccc(SC(F)(F)F)cc1)N1CCC(n2cc(Cl)cn2)C(c2cccc(F)c2)=N1 (centres unmarked) [Example 15] | 100 | 100 | 100 | – | – | 4.81/166 | 90 | 90 | 80 | 90 | – | – | – | –
5 | N#Cc1cccc(C2=NN(C(=O)Nc3ccc(SC(F)(F)F)cc3)CCC2n2cc(Cl)cn2)c1 (centres unmarked) [Example 17] | 100 | 100 | 100 | – | – | 4.44/182 | – | – | – | – | – | – | – | –
6 | N#Cc1cccc(C2=NNCCC2n2cc(Cl)cn2)c1 (centres unmarked) [II-1, 3-(3-cyanophenyl)-4-(4-chloropyrazol-1-yl)-1,4,5,6-tetrahydropyridazine] | – | – | – | 2.29 | 171 | – | – | – | – | – | – | – | – | –
